pIC50: −log10 of the molar value.
Legend:
[1] = system: MM1 S (B lymphoblast cell line); test: 48 hr CTG viability assay, MM1S; assay type: cell-based; details: Homo sapiens, 48 hr CTG, read-out: MM1S IC50
Experimental: (§1) A viability assay was conducted for 48 hours to evaluate the inhibition of cancer cell growth by proteasome inhibitors. Briefly, the candidate cell line was plated with a 96-well plate following density of cells, respectively. 6×10^3 Cells/well for A2780 (human ovarian cancer cell line) and MDA-MB-468 (breast carcinoma), 8×10^3 Cells/well for Hs746T (human gastric carcinoma cell line), 1.1×10^4 Cells/well for MM1 S and RPMI 8226 (multiple myeloma). After 24 hours, the cells were treated with various concentrations of the compound (ranging from 0.0015 uM to 10 uM). […] After 48 hours of incubation at 37° C., 5% CO2 incubator, cells were analyzed for viability using the CellTiter-Glo Luminescent Cell Viability assay (Promega, Cat #G7570). All viability assays were performed in duplicate and Luminescence was read using an Envision (Perkin Elmer, USA). Data were analyzed using XLfit software. […] (human gastric carcinoma cell line), MM1 S (B lymphoblast cell line), and RPMI 8226 (B lymphocyte cell line, multiple myeloma). Inhibition is indicated as IC50 [nM] (“-”=not measured).

[2] = system: RPMI 8226 (B lymphocyte cell line, multiple myeloma); test: 48 hr CTG viability assay, RPMI 8226; assay type: cell-based; details: Homo sapiens, RPMI-8226; 48 hr CTG; read-out: RPMI-8226 IC50
Experimental: as §1

[3] = system: Hs 746T (human gastric carcinoma cell line); test: 48 hr CTG viability assay, Hs 746T; assay type: cell-based; details: Hs746T, 48 hr CTG, read-out: Hs 746T IC50
Experimental: as §1

[4] = system: A549 (human lung carcinoma cell line); test: Glo assay of A549 cells (Table 3; ProteasomeGlo plating scheme); assay type: cell-based; details: Homo sapiens; A549 cells; read-out: PGLo A549
Text: Inhibition is indicated as IC50 [nM] (“-”=not measured). […] • Chymotrypsin-Like Cell-Based Proteasome-GloTM Assay (Promega; […]) • Cell culture 384-well plates (Greiner BioOne; 781080) • Dispensing cassette, MultiDrop Standard tube dispensing cassette (Thermo Scientific; 24072670) • DPBS (Pan BioTech; P04-36500) • Cell culture 384-well plates (Greiner BioOne; 781080) • CPD source plate: diamond-shape plate (Labcyte; LP-0200) • Intermediate plate (Labcyte; P-05525) [table] • a. Remove the plates with cells from the incubator. • b. Take all the plates including the compound plate, intermediate plate and Staurosporine plate to the ECHO. • c. Click on “Open” in the ECHO software and select the protocol “QLI5_25ul_30 uM-Grenier”. • d. Follow the on-screen prompts and instructions once you click “Start” to insert the compound plate, intermediate plate and destination plates. • e. Change the final number of destination plates on the program. • f. Follow the on-screen prompts and instructions once you click “Start” to load the Staurosporine and destination plates. • g. Once all the compounds, DMSO and Staurosporine have been transferred, place the destination plates in a wet tissue box. • h. Place the destination plates back into the incubator and incubate at 37° C., 5% CO2 for 105 minutes. • i. Re-seal all the compound+Stauro diamond and intermediate plates and store in the dark. Chymotrypsin like ProteasomeGlo Assay • 1. Thaw the components of the ProteasomeGlo assay at room temperature including the ProteasomeGlo Buffer, the lyophilized Luciferin Detection Reagent and the Suc-LLVY-Glo Substrate. • 2. Reconstitute the Luciferin Detection Reagent in the amber coloured bottle by adding 50 ml of the ProteasomeGlo Buffer. • 3. Vortex the Suc-LLVY-Glo Substrate briefly to reconstitute the Substrate well. • 4. Spin down the Substrate and add 250 μl of the Substrate to the reconstituted Luciferin Detection Reagent from step 2. • 5. Briefly vortex the amber bottle with the mix to prepare a homogenous solution. • 6. Place the mix prepared in step 5 to sit at room temperature for 60 minutes. • 7. After 60 minutes, pipette 25 μl of the mix from step 5 into all wells with the cells. • 8. Shake the plates for 2-5 minutes to ensure the complete mixing of the ProteasomeGlo reagent with the cells. • 9. Leave the plates in the dark for 10-15 minutes. • 10. Measure the luminescence read-out using the Viktor and the protocol “Luminescence_384Well_0.2 sec”. (Note: The Protoeasome-GloTM Reagent (combined Proteasome-GloTM Substrate, Proteasome-GloTM Buffer and Luciferin Detection Reagent) can be stored at 4° C. or -20° C. for 1 month with minimal loss of activity.)

[5] = molecular target: T1, β5 subunit of the human constitutive proteasome (CPS) (Homo sapiens, UniProt P28074); test: β5 inhibition assay, human constitutive proteasome (Suc-LLVY-AMC); assay type: biochemical; details: IC50 class, Suc-LLVY-AMC substrate
T1 construct: purchased Boston Biochem E-360
Experimental: The enzymatic activity of the β5 subunit of the human constitutive proteasome (CPS) is analyzed. In another assay, which differs from the assay of the human constitutive proteasome only in using the human immunoproteasome (IPS) the enzymatic activity of the β5 subunit of the human immunoproteasome (IPS) is analyzed. […] Inhibition is indicated as IC50 [nM] (“-”=not measured).

[6] = molecular target: T2, β5 subunit of the human immunoproteasome (IPS) (Homo sapiens, UniProt P28062); test: β5 inhibition assay, human immunoproteasome (Suc-LLVY-AMC); assay type: biochemical; details: IC50 class, Suc-LLVY-AMC substrate
T2 construct: purchased Boston Biochem E-370
Outline: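 β5 activity is read as liberated AMC fluorescence (355/460 nm) after 4 h dark reaction at RT with 22.6 μM Suc-LLVY-AMC, stopped by 1 μM bortezomib. Beforehand, 1 nM human IPS and compound sat 10 min at RT in HEPES pH 7.5 buffer containing NaCl, 0.02% SDS and DTT.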

SMILES	pIC50 [1]	pIC50 [2]	pIC50 [3]	pIC50 [4]	pIC50 [5]	pIC50 [6]
Cc1ccc2cc1CNC(=O)[C@H](CCc1ccccc1)NC(=O)[C@@H](NC(=O)C(C)(C)CO)CC(=O)N1CCC[C@H](CCO2)C1 [Compound 573]	> 7.00	> 7.00	–	–	–	–
Cc1ccc2cc1CNC(=O)[C@H](CCc1ccccc1)NC(=O)[C@@H](NC(=O)CCOC1CC3(C1)CN(C(=O)OC(C)(C)C)C3)CC(=O)N1CCCC(CCO2)C1 (some centres unmarked) [Compound 577]	> 7.00	> 7.00	> 7.00	–	–	–
Cc1ccc2cc1CNC(=O)[C@H](CCc1ccccc1)NC(=O)[C@@H](NC(=O)Cc1ccc(NC(=O)[C@@H](N)CC(=O)O)cc1C)CC(=O)N1CCCC(CCO2)C1 (some centres unmarked) [Compound 578]	> 7.00	> 7.00	> 7.00	–	–	–
Cc1ccc2cc1CNC(=O)[C@H](CCc1ccccc1)NC(=O)[C@@H](NS(=O)(=O)C1CCCCC1)CC(=O)N1CCCC(CCO2)C1 (some centres unmarked) [Compound 579]	> 7.00	> 7.00	> 7.00	–	–	–
Cc1ccc2cc1CNC(=O)[C@H](CCc1ccccc1)NC(=O)[C@@H](NC(=O)C1CC3(C1)CN(C(=O)OC(C)(C)C)C3)CC(=O)N1CCCC(CCO2)C1 (stereo partly drawn) [Compound 580, tert-butyl 6-(((9S,12S)-5^4-methyl-8,11,14-trioxo-9-phenethyl-4-oxa-7,10-diaza-1(3,1)-piperidina-5(1,3)-benzenacyclotetradecaphane-12-yl)carbamoyl)-2-azaspiro[3.3]heptane-2-carboxylate]	> 7.00	> 7.00	> 7.00	> 7.00	> 7.00	> 7.00
COc1cccc(CCOCCC(=O)N[C@H]2CC(=O)N3CCCC(CCOc4ccc(C)c(c4)CNC(=O)[C@H](CCc4ccccc4)NC2=O)C3)c1 (stereo partly drawn) [Compound 581, 3-(3-methoxyphenethoxy)-N-((9S,12S)-5^4-methyl-8,11,14-trioxo-9-phenethyl-4-oxa-7,10-diaza-1(3,1)-piperidina-5(1,3)-benzenacyclotetradecaphane-12-yl)propanamide]	> 7.00	> 7.00	> 7.00	> 7.00	> 7.00	> 7.00
Cc1ccc2cc1CNC(=O)[C@H](CCc1cccnc1)NC(=O)[C@@H](NC(=O)Cc1ccccc1F)CC(=O)N1CCCC(CCO2)C1 (stereo partly drawn) [Compound 600, 2-(2-fluorophenyl)-N-((9S,12S)-5^4-methyl-8,11,14-trioxo-9-(2-(pyridin-3-yl)ethyl)-4-oxa-7,10-diaza-1(3,1)-piperidina-5(1,3)-benzenacyclotetradecaphane-12-yl)acetamide]	> 7.00	> 7.00	–	–	> 7.00	> 7.00
Cc1ccc2cc1CNC(=O)[C@H](CCc1ccccc1)NC(=O)[C@@H](NC(=O)C(C)(C)CO)CC(=O)N1CCC[C@@H](CCO2)C1 [Compound 644, 3-hydroxy-2,2-dimethyl-N-((13S,9S,12S)-5^4-methyl-8,11,14-trioxo-9-phenethyl-4-oxa-7,10-diaza-1(3,1)-piperidina-5(1,3)-benzenacyclotetradecaphane-12-yl)propanamide]	> 7.00	> 7.00	–	> 7.00	> 7.00	> 7.00
Cc1ccc2cc1CNC(=O)[C@H](CCc1ccccc1)NC(=O)[C@@H](NC(=O)C(C)(C)CF)CC(=O)N1CCCC(CCO2)C1 (stereo partly drawn) [Compound 650, 3-fluoro-2,2-dimethyl-N-((9S,12S)-5^4-methyl-8,11,14-trioxo-9-phenethyl-4-oxa-7,10-diaza-1(3,1)-piperidina-5(1,3)-benzenacyclotetradecaphane-12-yl)propanamide]	> 7.00	> 7.00	–	> 7.00	> 7.00	> 7.00
Cc1ccc2cc1CNC(=O)[C@H](CCc1ccccc1)NC(=O)[C@@H](NC(=O)C1(CO)CCC1)CC(=O)N1CCCC(CCO2)C1 (stereo partly drawn) [Compound 670, 1-(hydroxymethyl)-N-((9S,12S)-5^4-methyl-8,11,14-trioxo-9-phenethyl-4-oxa-7,10-diaza-1(3,1)-piperidina-5(1,3)-benzenacyclotetradecaphane-12-yl)cyclobutane-1-carboxamide]	> 7.00	> 7.00	–	> 7.00	> 7.00	> 7.00
Cc1ccc2cc1CNC(=O)[C@H](CCc1ccccc1)NC(=O)[C@@H](NC(=O)C(C)(C)CN)CC(=O)N1CCCC(CCO2)C1 (stereo partly drawn) [Compound 682, 3-amino-2,2-dimethyl-N-((9S,12S)-5^4-methyl-8,11,14-trioxo-9-phenethyl-4-oxa-7,10-diaza-1(3,1)-piperidina-5(1,3)-benzenacyclotetradecaphane-12-yl)propanamide]	> 7.00	> 7.00	–	> 7.00	> 7.00	> 7.00
Cc1ccc2cc1CNC(=O)[C@H](CCc1ccccc1)NC(=O)[C@@H](NC(=O)C1(CO)CCCC1)CC(=O)N1CCCC(CCO2)C1 (stereo partly drawn) [Compound 689, 1-(hydroxymethyl)-N-((9S,12S)-5^4-methyl-8,11,14-trioxo-9-phenethyl-4-oxa-7,10-diaza-1(3,1)-piperidina-5(1,3)-benzenacyclotetradecaphane-12-yl)cyclopentane-1-carboxamide]	> 7.00	> 7.00	–	> 7.00	> 7.00	> 7.00
Cc1ccc2cc1CNC(=O)[C@H](CCc1ccccc1)NC(=O)[C@@H](NC(=O)CCOCCCC1CCCC1)CC(=O)N1CCCC(CCO2)C1 (stereo partly drawn) [Compound 692, 3-(3-cyclopentylpropoxy)-N-((9S,12S)-5^4-methyl-8,11,14-trioxo-9-phenethyl-4-oxa-7,10-diaza-1(3,1)-piperidina-5(1,3)-benzenacyclotetradecaphane-12-yl)propanamide]	> 7.00	> 7.00	> 7.00	–	> 7.00	> 7.00
Cc1ccc2cc1CNC(=O)[C@H](CCc1ccccc1)NC(=O)[C@@H](N1CC(C)(C)NC1=O)CC(=O)N1CCCC(CCO2)C1 (stereo partly drawn) [Compound 733, (9S,12S)-12-(4,4-dimethyl-2-oxoimidazolidin-1-yl)-5^4-methyl-9-phenethyl-4-oxa-7,10-diaza-1(3,1)-piperidina-5(1,3)-benzenacyclotetradecaphane-8,11,14-trione]	6.30 to 7.00	5.30 to 6.00	–	5.30 to 6.00	5.30 to 6.00	6.30 to 7.00

Source: patent US20240415819A1, “MACROCYCLIC COMPOUNDS AS PROTEASOME SUBUNIT BETA TYPE-5 INHIBITORS” (Lead Discovery Center GmbH, priority 2021, published 2024)
